Experimental data reported in publication PMC10937574, “Modification of 4-(4-chlorothiophen-2-yl)thiazol-2-amine derivatives for the treatment of analgesia and inflammation: synthesis and in vitro, in vivo, and in silico studies” (Frontiers in Pharmacology, 2024).
Where “and” joins values, the source holds several entries; their conditions need not be identical. Equal values may be shown once. Read-outs that look alike come from different tables or passages of the source.

What was measured:
[1] = tested on: carrageenan-induced paw edema; assay: Carrageenan-induced paw edema; type: in vivo, albino mice
[2] = tested on: prostaglandin E2-induced paw edema; assay: Prostaglandin E2-induced paw edema; type: in vivo, mouse
Description: It was done by injecting 10% DMSO, a Bradykinin inhibitor (HOE 140) at a dose of 1 mg/kg, a lipoxygenase inhibitor (montelukast) at a dose of 25 mg/kg, an antihistamine at a dose of 100 mg/kg, the tested compound at a dose of 100 mg/kg, or a cyclooxygenase inhibitor (celecoxib) at a dose of 50 mg/kg.

5-LOX enzyme = assay: 5-LOX activity (5-lipoxygenase inhibition, linoleic acid substrate, absorbance 234 nm); settings: read-out: IC50 ± SEM 5-LOX
[3] = tested on: bradykinin-induced paw edema; assay: Bradykinin-induced paw edema; type: in vivo, mouse; settings: 20 mg/kg, first hour
Description: (§1) It was done by injecting 10% DMSO, a Bradykinin inhibitor (HOE 140) at a dose of 1 mg/kg, a lipoxygenase inhibitor (montelukast) at a dose of 25 mg/kg, an antihistamine at a dose of 100 mg/kg, […], or a cyclooxygenase inhibitor (celecoxib) at a dose of 50 mg/kg.

[4] = tested on: histamine-induced paw edema; assay: Histamine-induced paw edema; type: in vivo, mouse; settings: 20 mg/kg, at 3 h
[5] = tested on: leukotriene-induced paw edema; assay: Leukotriene-induced paw edema; type: in vivo, mouse; settings: for percentage inhibition of leukotriene-induced paw edema: 20 mg/kg
Description: as §1

## CC(=O)Oc1ccccc1C(=O)O [Aspirin, reference compound]
[1]; dose 50 mg/kg, 1 h
  Percent inhibition of paw edema: 48.52 ± 1.12 %
[1]; dose 50 mg/kg, 2 h
  Percent inhibition of paw edema: 54.63 ± 1.47 %
[1]; dose 50 mg/kg, 3 h
  Percent inhibition of paw edema: 55.22 ± 1.38 %
[1]; dose 50 mg/kg, 4 h
  Percent inhibition of paw edema: 58.92 ± 1.95 %
[1]; dose 50 mg/kg, 5 h
  Percent inhibition of paw edema: 59.60 ± 1.52 %
[1]; dose 50 mg/kg, 5 h, listed as aspirin
  Percent inhibition of paw edema: 59.60%

## Cc1ccc(-c2cc(C(F)(F)F)nn2-c2ccc(S(N)(=O)=O)cc2)cc1 [Celecoxib, reference compound]
[2]; celecoxib 50 mg/kg, 4th hour after inflammogen
  reduction of prostaglandin E2-induced paw edema: 88%

## Nc1nc(-c2cc(Cl)cs2)c(N2CCNCC2)s1 [Compound 5a]
5-LOX enzyme
  IC50: 93.15 ± 0.07 µM

## CCNc1nc(-c2cc(Cl)cs2)c(N2CCNCC2)s1 [Compound 5b]
5-LOX enzyme
  IC50: 98.26 ± 0.08 µM

## CCNc1nc(-c2cc(Cl)cs2)c(N2CCN(C)CC2)s1 [Compound 5c]
5-LOX enzyme
  IC50: 72.32 ± 0.11 µM

## CN1CCN(c2sc(NCc3ccccc3)nc2-c2cc(Cl)cs2)CC1 [Compound 5d]
[1]; dose 5 mg/kg, 1 h
  Percent inhibition of paw edema: 45.47 ± 1.11%
[1]; dose 5 mg/kg, 2 h
  Percent inhibition of paw edema: 48.10 ± 1.42 %
[1]; dose 10 mg/kg, 1 h
  Percent inhibition of paw edema: 49.68 ± 1.44%
[1]; dose 20 mg/kg, 5 h
  Percent inhibition of paw edema: 61.64 ± 1.10%
[3]
  inhibition of bradykinin-induced paw swelling: 9.20%
[4]
  antihistaminic effect (suppression of histamine-induced paw edema): 27.12%
5-LOX enzyme
  IC50: 23.08 ± 0.18 µM
[2]; 20 mg/kg, fourth hour
  inhibition of prostaglandin E2-induced paw edema: 76.56 ± 0.58
[5]; fifth hour (fifth of five values)
  percentage inhibition of leukotriene-induced paw edema: 59.90 ± 0.68%
[5]; first hour (first of five values)
  percentage inhibition of leukotriene-induced paw edema: 51.80 ± 0.58%
[5]; fourth hour
  percentage inhibition of leukotriene-induced paw edema: 64.56 ± 0.78%
[5]; second hour (second of five values)
  percentage inhibition of leukotriene-induced paw edema: 55.90 ± 0.66%
[5]; third hour (third of five values)
  percentage inhibition of leukotriene-induced paw edema: 59.46 ± 0.52%

## Clc1csc(-c2nc(NCc3ccccc3)sc2Nc2ccccc2)c1 [Compound 5e]
[1]; dose 5 mg/kg, 1 h
  Percent inhibition of paw edema: 47.70 ± 1.68 %
[1]; dose 5 mg/kg, 2 h
  Percent inhibition of paw edema: 51.47 ± 1.50 %
[1]; dose 5 mg/kg, 3 h
  Percent inhibition of paw edema: 54.56 ± 1.34 %
[1]; dose 5 mg/kg, 4 h
  Percent inhibition of paw edema: 53.35 ± 1.47 %
[1]; dose 5 mg/kg, 5 h
  Percent inhibition of paw edema: 56.25 ± 1.65 %
[1]; dose 10 mg/kg, 1 h
  Percent inhibition of paw edema: 52.36 ± 2.26 %
[1]; dose 10 mg/kg, 2 h
  Percent inhibition of paw edema: 54.58 ± 2.58 %
[1]; dose 10 mg/kg, 3 h
  Percent inhibition of paw edema: 57.59 ± 1.59 %
[1]; dose 10 mg/kg, 4 h
  Percent inhibition of paw edema: 56.78 ± 2.66 %
[1]; dose 10 mg/kg, 5 h
  Percent inhibition of paw edema: 62.65 ± 2.79 %
[1]; dose 20 mg/kg, 1 h
  Percent inhibition of paw edema: 55.29% and 55.29 ± 1.04 %
[1]; dose 20 mg/kg, 2 h
  Percent inhibition of paw edema: 57.39 ± 1.69 %
[1]; dose 20 mg/kg, 3 h
  Percent inhibition of paw edema: 60.76 ± 2.68 %
[1]; dose 20 mg/kg, 4 h
  Percent inhibition of paw edema: 59.08 ± 1.98 %
[1]; dose 20 mg/kg, 5 h
  Percent inhibition of paw edema: 64.59% and 64.59 ± 1.49 %
[3]
  inhibition of bradykinin-induced paw swelling: 21.30%
[4]
  antihistaminic effect (suppression of histamine-induced paw edema): 35%
5-LOX enzyme; listed as C00005
  IC50: 38.45 ± 0.2 µM
[5]; fourth hour
  percentage inhibition of leukotriene-induced paw edema: 69.84%

## CCNc1nc(-c2cc(Cl)cs2)c(Nc2ccccc2)s1 [Compound 5f]
5-LOX enzyme
  IC50: 56.21 ± 0.15 µM

## C#CCNc1nc(-c2cc(Cl)cs2)c(Nc2ccccc2)s1 [Compound 5g]
5-LOX enzyme
  IC50: 83.11 ± 0.16 µM

## CC(C)(O)c1ccccc1CC[C@@H](SCC1(CC(=O)O)CC1)c1cccc(/C=C/c2ccc3ccc(Cl)cc3n2)c1 [montelukast, reference compound]
[5]; montelukast 25 mg/kg, fourth hour
  percentage reduction of leukotriene-induced paw edema: 72.79 ± 1.10%
